Laboratory results from US11566007B2, “Ras inhibitors” (Revolution Medicines, Inc., priority 2019, dated 2023).
Where two headings read alike, the source gives them in different places.

Columns and labels:
[1] = system: NCI-H358 cells (K-Ras G12C); assay: Potency assay: pERK in NCI-H358 cells; assay type: cell-based, human; conditions: H358 KRAS G12C, read-out: pERK EC50
Procedure, shortened: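 Inhibition of cellular pERK after a 4 h treatment, detected by AlphaLISA or In-Cell Western. IC50 from a four-parameter concentration-response fit.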

NCI-H358 (K-Ras G12C) = assay: CellTiter-Glo cell viability assay, NCI-H358; assay type: cell-based, human; conditions: NCI-H358, 5-day treatment, class symbols, read-out: Additional H358 Cell Viability assay data (K-Ras G12C, IC50)
Procedure, shortened: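 Compounds were dispensed directly onto K-Ras mutant cells and incubated until day 5, then plates were equilibrated to room temperature for about 30 minutes before CellTiter-Glo luminescence. Signals were normalized as (sample/average DMSO)*100 and fitted by four-parameter logistic fit.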

KRAS G12S = KRAS G12S (Homo sapiens (Human), UniProt P01116+P62937, G12S); assay: Ras-Raf (BRAF RBD) disruption / FRET / MOA assay, KRAS G12S; assay type: biochemical
Procedure, shortened: (§1)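 TR-FRET read-out: a drop in ratio relative to DMSO wells marks disruption of the Ras:RAF complex, reported as IC50. Compounds (3-fold series, 10 points, top 30 μM final) incubated 3 h at 25° C before Eu-anti-His 10 nM and APC-anti-GST 50 nM, 1.5 h more.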

KRAS G12D = KRAS G12D (Homo sapiens (Human), UniProt P01116+P62937, G12D); assay: Ras-Raf (BRAF RBD) disruption / FRET / MOA assay, KRAS G12D; assay type: biochemical
Procedure, shortened: as §1

KRAS Q61H = KRAS Q61H (Homo sapiens (Human), UniProt P01116+P62937, Q61H); assay: Ras-Raf (BRAF RBD) disruption / FRET / MOA assay, KRAS Q61H; assay type: biochemical
Protocol: The purpose of this biochemical assay is to measure the ability of test compounds to facilitate ternary complex formation between a nucleotide-loaded Ras isoform and cyclophilin A; the resulting ternary complex disrupts binding to a BRAF^RBD construct, inhibiting Ras signaling through a RAF effector.
[…]. Compound is present in plate wells as a 10-point 3-fold dilution series starting at a final concentration of 30 μM. After incubation at 25° C. for 3 hours, a mixture of Anti-His Eu-W1024 and anti-GST allophycocyanin is then added to assay sample wells at final concentrations of 10 nM and 50 nM, respectively, and the reaction incubated for an additional 1.5 hours. […] Compounds that facilitate disruption of a Ras:RAF complex are identified as those eliciting a decrease in the TR-FRET ratio relative to DMSO control wells.
Note—The following protocol describes a procedure for monitoring disruption of K-Ras G12C (GMP-PNP) binding to BRAF^RBD by a compound of the invention. This protocol may also be executed substituting other Ras proteins or nucleotides.
The purpose of this biochemical assay was to measure the ability of test compounds to facilitate ternary complex formation between a nucleotide-loaded K-Ras isoform and Cyclophilin A; the resulting ternary complex disrupts binding to a BRAF^RBD construct, inhibiting K-Ras signaling through a RAF effector. Data is reported as IC50 values.
[…]. Compound was present in plate wells as a 10-point 3-fold dilution series starting at a final concentration of 30 μM. After incubation at 25° C. for 3 hours, a mixture of Anti-His Eu-W1024 and anti-GST allophycocyanin was then added to assay sample wells at final concentrations of 10 nM and 50 nM, respectively, and the reaction incubated for an additional 1.5 hours. […] Compounds that facilitate disruption of a K-Ras:RAF complex were identified as those eliciting a decrease in the TR-FRET ratio relative to DMSO control wells.

[2] = Ras-Raf disruption/FRET/MOA assay; class symbols; read-out: KRAS G12S FRET data IC50
[3] = Ras-Raf disruption/FRET/MOA assay; class symbols; read-out: KRAS G12D FRET data IC50
[4] = Ras-Raf disruption/FRET/MOA assay; class symbols; read-out: KRAS Q61H FRET data IC50

Sequence of KRAS Q61H (P01116-2 other isoform, or with tags, fused parts or gaps Q61H): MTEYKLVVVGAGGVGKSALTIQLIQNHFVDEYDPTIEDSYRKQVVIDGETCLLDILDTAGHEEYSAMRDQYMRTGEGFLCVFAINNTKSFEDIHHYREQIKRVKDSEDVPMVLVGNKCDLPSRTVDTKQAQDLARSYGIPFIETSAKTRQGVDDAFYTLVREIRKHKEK
Sequence of KRAS Q61H (P62937 whole entry, canonical isoform): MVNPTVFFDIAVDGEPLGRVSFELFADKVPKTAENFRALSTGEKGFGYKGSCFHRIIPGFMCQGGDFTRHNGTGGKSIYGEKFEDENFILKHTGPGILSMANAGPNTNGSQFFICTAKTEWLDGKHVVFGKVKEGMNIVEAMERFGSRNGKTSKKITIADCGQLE
Sequence of KRAS G12S (P01116-2 other isoform, or with tags, fused parts or gaps G12S): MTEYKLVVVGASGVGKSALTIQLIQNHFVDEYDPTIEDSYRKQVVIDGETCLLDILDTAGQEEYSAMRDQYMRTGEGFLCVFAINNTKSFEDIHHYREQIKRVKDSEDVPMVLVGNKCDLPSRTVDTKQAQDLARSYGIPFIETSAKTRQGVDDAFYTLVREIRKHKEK
Sequence of KRAS G12S (P62937 whole entry): as the sequence (P62937 whole entry, canonical isoform) above
Sequence of KRAS G12D (P01116-2 other isoform, or with tags, fused parts or gaps G12D): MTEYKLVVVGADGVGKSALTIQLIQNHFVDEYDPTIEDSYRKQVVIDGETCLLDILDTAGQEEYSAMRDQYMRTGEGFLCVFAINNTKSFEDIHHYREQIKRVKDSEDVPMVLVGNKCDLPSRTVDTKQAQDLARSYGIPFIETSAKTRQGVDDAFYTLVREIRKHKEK
Sequence of KRAS G12D (P62937 whole entry): as the sequence (P62937 whole entry, canonical isoform) above

SMILES | EC50 ([1]; Homo sapiens, NCI-H358) | IC50 (NCI-H358 (K-Ras G12C); Homo sapiens, NCI-H358, 120 h) | IC50 (KRAS G12S; read-out: KRAS G12S FRET data IC50; Ras-Raf disruption/FRET/MOA assay; class symbols) | IC50 (KRAS G12D; read-out: KRAS G12D FRET data IC50; Ras-Raf disruption/FRET/MOA assay; class symbols) | IC50 (KRAS Q61H; read-out: KRAS Q61H FRET data IC50; Ras-Raf disruption/FRET/MOA assay; class symbols) | EC50 [1] | IC50 (NCI-H358 (K-Ras G12C)) | IC50 (KRAS G12S; [2]) | IC50 (KRAS G12D; [3]) | IC50 (KRAS Q61H; [4])
C=CC(=O)N1CC[C@H](C(=O)N(C)[C@H](C(=O)N[C@H]2Cc3cc(sn3)-c3ccc4c(c3)c(c(-c3cccnc3[C@H](C)OC)n4CC)CC(C)(C)COC(=O)[C@@H]3CCCN(N3)C2=O)C(C)C)C1 (atropisomer, axis not shown) [Example A277] | < 5 µM | 0.1 to 1 µM | 1 to 10 µM | > 10 µM | 0.1 to 1 µM |  |  |  |  | 
C=CC(=O)N1CC[C@H](C(=O)N(C)[C@H](C(=O)N[C@H]2CC3=NC=C(O3)c3ccc4c(c3)c(c(-c3cccnc3[C@H](C)OC)n4CC)CC(C)(C)COC(=O)[C@@H]3CCCN(N3)C2=O)C(C)C)C1 (atropisomer, axis not shown) [Example A331] |  |  |  |  |  | < 5 µM | 0.1 to 1 µM | 1 to 10 µM | > 10 µM | 1 to 10 µM
CCn1c(-c2cccnc2[C@H](C)OC)c2c3cc(ccc31)-c1cccc(c1)C[C@H](NC(=O)[C@H](C(C)C)N(C)C(=O)[C@H]1CCN(C(=O)C#CC(C)(C)N(C)C)C1)C(=O)N1CCC[C@H](N1)C(=O)OCC(C)(C)C2 (atropisomer, axis not shown) [Example A339] |  |  |  |  |  | < 5 µM | < 0.01 µM | 1 to 10 µM | > 10 µM | 1 to 10 µM
C=CC(=O)Nc1ncc(C(=O)N(C)[C@H](C(=O)N[C@H]2Cc3cccc(c3)-c3ccc4c(c3)c(c(-c3cccnc3[C@H](C)OC)n4CC)CC(C)(C)COC(=O)[C@@H]3CCCN(N3)C2=O)C(C)C)n1C (atropisomer, axis not shown) [Example A475] |  |  |  |  |  | < 5 µM |  | 1 to 10 µM | > 10 µM | 0.1 to 1 µM
C=CC(=O)N1CCN(C(=O)N(C)[C@H](C(=O)N[C@H]2Cc3nc(cs3)-c3ccc4c(c3)c(c(-c3cccnc3[C@H](C)OC)n4CC)CC(C)(C)COC(=O)[C@@H]3CCCN(N3)C2=O)C(C)C)CC1 (atropisomer, axis not shown) [Example A492] |  |  |  |  |  | < 5 µM | < 0.01 µM | 0.01 to 0.1 µM | 0.1 to 1 µM | 0.01 to 0.1 µM
C=CC(=O)N1CCN(C(=O)N(C)[C@H](C(=O)N[C@H]2Cc3nc(cs3)-c3ccc4c(c3)c(c(-c3cccnc3[C@H](C)OC)n4CC)CC(C)(C)COC(=O)[C@@H]3CCCN(N3)C2=O)C(C)C)CC1 (atropisomer, axis not shown) [Example A493] |  |  |  |  |  | < 5 µM | < 0.01 µM | 0.01 to 0.1 µM | 0.1 to 1 µM | 0.01 to 0.1 µM
C=CC(=O)N1CC[C@H](C(=O)N(C)[C@H](C(=O)N[C@H]2Cc3cc(CF)cc(c3)-c3ccc4c(c3)c(c(-c3cccnc3[C@H](C)OC)n4CC)CC(C)(C)COC(=O)[C@@H]3CCCN(N3)C2=O)C(C)C)C1 (atropisomer, axis not shown) [Example A504] |  |  |  |  |  | < 5 µM | < 0.01 µM | 1 to 10 µM | 1 to 10 µM | 0.1 to 1 µM
C=CC(=O)N1CC[C@H](C(=O)N(C)[C@H](C(=O)N[C@H]2Cc3cc(CF)cc(c3)-c3ccc4c(c3)c(c(-c3cccnc3[C@H](C)OC)n4CC)CC(C)(C)COC(=O)[C@@H]3CCCN(N3)C2=O)C(C)C)C1 (atropisomer, axis not shown) [Example A505] |  |  |  |  |  | < 5 µM | < 0.01 µM | 1 to 10 µM | 1 to 10 µM | 0.1 to 1 µM
C=CC(=O)N1CC[C@H](C(=O)N(C)[C@H](C(=O)N[C@H]2Cc3cc(O)cc(c3)-c3ccc4c(c3)c(c(-c3c(F)cccc3CCOC)n4CC)CC(C)(C)COC(=O)[C@@H]3CCCN(N3)C2=O)C(C)C)C1 [Example A025] |  |  |  |  |  |  |  | 1 to 10 µM | > 10 µM | 1 to 10 µM
C=CC(=O)N1CC[C@H](C(=O)N(C)[C@H](C(=O)N[C@H]2Cc3cc(O)cc(c3)-c3ccc4c(c3)c(c(-c3ccccc3N3CCOCC3)n4CC)CC(C)(C)COC(=O)[C@@H]3CCCN(N3)C2=O)C(C)C)C1 [Example A026] |  |  |  |  |  |  |  | > 10 µM | > 10 µM | 1 to 10 µM
C=CC(=O)N1CC[C@H](C(=O)N(C)[C@H](C(=O)N[C@H]2Cc3cc(O)cc(c3)-c3ccc4c(c3)c(c(-c3cccnc3)n4CC)CC(C)(C)COC(=O)[C@@H]3CCCN(N3)C2=O)C(C)C)C1 [Example A045] |  |  |  |  |  |  |  | 1 to 10 µM | > 10 µM | 0.1 to 1 µM
C=CC(=O)N1CC[C@H](C(=O)N(C)[C@H](C(=O)N[C@H]2Cc3cc(O)cc(c3)-c3ccc4c(c3)c(c(-c3ccc5c(c3)OCCN5C)n4CC)CC(C)(C)COC(=O)[C@@H]3CCCN(N3)C2=O)C(C)C)C1 [Example A050] |  |  |  |  |  |  |  | 1 to 10 µM | > 10 µM | 1 to 10 µM
C=CC(=O)N1CC[C@H](C(=O)N(C)[C@H](C(=O)N[C@H]2Cc3cc(O)cc(c3)-c3cc(F)c4c(c3)c(c(-c3ccccc3CCOC)n4CC)CC(C)(C)COC(=O)[C@@H]3CCCN(N3)C2=O)C(C)C)C1 [Example A053] |  |  |  |  |  |  |  |  | > 10 µM | 1 to 10 µM
C=CC(=O)N1CC[C@H](C(=O)N(C)[C@H](C(=O)N[C@H]2Cc3cc(O)cc(c3)-c3ccc4c(c3)c(c(-c3cccnc3N3CC(OC)C3)n4CC)CC(C)(C)COC(=O)[C@@H]3CCCN(N3)C2=O)C(C)C)C1 [Example A060] |  |  |  |  |  |  |  | 1 to 10 µM | > 10 µM | 1 to 10 µM
C=CC(=O)N1CC[C@H](C(=O)N(C)[C@H](C(=O)N[C@H]2Cc3cc(O)cc(c3)-c3ccc4c(c3)c(c(-c3cncnc3)n4CC)CC(C)(C)COC(=O)[C@@H]3CCCN(N3)C2=O)C(C)C)C1 [Example A061] |  |  |  |  |  |  |  | 1 to 10 µM | > 10 µM | 1 to 10 µM
C=CC(=O)N1CC[C@H](C(=O)N(C)[C@H](C(=O)N[C@H]2Cc3cc(O)cc(c3)-c3ccc4c(c3)c(c(C3=C(COC)CCCC3)n4CC)CC(C)(C)COC(=O)[C@@H]3CCCN(N3)C2=O)C(C)C)C1 [Example A064] |  |  |  |  |  |  |  | 0.1 to 1 µM | > 10 µM | 0.1 to 1 µM
C=CC(=O)N1CC[C@H](C(=O)N(C)[C@H](C(=O)N[C@H]2Cc3cc(O)cc(c3)-c3ccc4c(c3)c(c(-c3cncc(COC)c3)n4CC)CC(C)(C)COC(=O)[C@@H]3CCCN(N3)C2=O)C(C)C)C1 [Example A083] |  |  |  |  |  |  |  | 0.1 to 1 µM | > 10 µM | 0.1 to 1 µM
C=CC(=O)N1CC[C@H](C(=O)N(C)[C@H](C(=O)N[C@H]2Cc3cc(O)cc(c3)-c3ccc4c(c3)c(c(-c3cnn5c3[C@@H](OC)CCC5)n4CC)CC(C)(C)COC(=O)[C@@H]3CCCN(N3)C2=O)C(C)C)C1 [Example A333] |  |  |  |  |  | < 5 µM | < 0.01 µM | 0.01 to 0.1 µM | 0.1 to 1 µM | 0.01 to 0.1 µM
